# Measured values as given in US8673368B2, “Cannabinoid-containing plant extracts as neuroprotective agents” (GW Pharma Limited, priority 2006, dated 2014).
# Experiments:
# [1] = tested on: NMDA receptor; conditions: cited from earlier work
# [2] = tested on: hippocampal neurones; assay: Effect of five-minute application of 1 μM test article on intracellular calcium levels (calcium imaging, Fura-2-AM); format: cell-based, Lister-Hooded rat; conditions: for Concentration of intracellular Ca2+ Post-treatment: after five-minute application of 1 μM test article; for Fura-2 350/380 nm ratio, pre-treatment: baseline before five-minute application of 1 μM test article; for %ΔF/F / Concentration of intracellular Ca2+ Response (Post-Pre): five-minute application of 1 μM test article
# Procedure: (§1) Standard primary hippocampal cultures were prepared from Lister-Hooded rat pups (1-3 days old), euthanised by cervical dislocation, in accordance with Home Office and institute regulations. The brain was quickly removed, hippocampi dissected out and placed in ice-cold filtered HEPES buffered solution (HBS, composition in mM: NaCl 130; KCl 5.4; CaCl2 1.8; MgCl2 1.0; HEPES 10; glucose 25). Micro-dissection was performed to remove blood vessels and excess, non-hippocampal, tissue.
# (§2) The hippocampal tissue was thinly chopped and placed in 1 mg/ml type X and XIV protease solution (40 minutes). The tissue was then washed in HBS and triturated several times using graded fire-polished glass Pasteur pipettes. Following centrifugation, the supernatant was removed and the remaining tissue pellet re-suspended in tissue culture medium (90% Minimum Essential Medium with 10% foetal bovine serum and 2 mM L-glutamine). The tissue was stored at standard conditions: in a humidified incubator at 37° C. and in 5% CO2, and re-centrifuged.
# (§3) Excess medium was removed and the tissue pellet re-suspended in culture medium for plating. A drop of cell suspension was placed on the centre of a 35 mm culture dish, coated with poly-L-lysine and incubated at 37° C. for 1 hour. Following this, a further 2 ml of tissue culture medium was gently added to each dish and the culture kept in a humidified incubator (37° C.; 5% CO2).
# (§4) Cultures were allowed to mature for 2 days before replacement of MEM with Neurobasal Medium, supplemented with 2% B27, 2 mM L-glutamine, and 25 μM L-glutamate. Culture dishes were used for imaging at 5-10 days in vitro.
# (§5) For calcium imaging experiments, hippocampal cultures were washed with HBS at room temperature and loaded with the cell-permeable fluorescent calcium indicator Fura-2-AM (10 μM) for 1 hour in the dark.
# (§6) The sodium channel blocker tetrodotoxin (TTX) was added to all perfusion media, to avoid spontaneous cell firing and transmitter release, ensuring only post-synaptic effects were visualised.
# (§7) Cultures were perfused with HBS or low Mg^2+HEPES buffered solution for experiments involving NMDA (composition in mM: NaCl 130; KCl 5.4; CaCl2 1.8; MgCl2 0.1; HEPES 10; glucose 25), at a rate of 1-2 ml/min, using a gravity perfusion system.
# (§8) A suitable field of cells was identified under the microscope and a greyscale transmission image visualised and captured using Oracal software. A Xenon lamp, which gave a single wavelength of light, was used to expose the cells to 350 nm and 380 nm, specified by the monochromator.
# (§9) The ratio of these wavelengths, which is directly proportional to intracellular calcium levels in the cells, was plotted after background fluorescence subtraction.
# (§10) The data that were produced were pooled and means for each experiment determined.
# In order to test the regulation of calcium homeostasis in the presence of the test article, the effects were measured in response to a five-minute application of 1 μM sample.
# (§11) Fluorescent units were converted into %ΔF/F. F is defined as an average of five baseline values before drug application. The value for %ΔF/F is therefore the percentage change in the […] by the average baseline value before drug application.
# All experiments were performed a minimum of three times, each on neurones from a different culture. Only changes in fluorescence >0.1 ratio units were considered as a response. Data were exported to Excel and statistical analysis performed using Prism. Normality tests confirmed absence of normal distribution of data. Therefore, a Mann Whitney U test was utilised for paired comparisons and for multiple group comparisons a Kruskal-Wallis test with either a Dunn's or Mann Whitney post-test used.
# The effects of the essentially pure cannabinoids, the cannabinoid-containing plant extracts and the cannabinoid-ratioed comparators were assessed to investigate the responses of the neurones to these different forms of cannabinoid.
# [3] = tested on: hippocampal neurones; assay: Acute modulation of NMDA (10 μM) calcium response by five-minute application of 1 μM test article; format: cell-based, Lister-Hooded rat; conditions: for Pre-treatment %ΔF/F / Pre-treatment [Ca2+]: initial two-minute NMDA (10 μM) application, before test article; for Response (% change): reduction of NMDA (10 μM) calcium response by 1 μM test article, positive = reduction; for Post-treatment %ΔF/F / Post-treatment [Ca2+]: second two-minute NMDA (10 μM) application after five minutes of 1 μM test article
# Procedure: as §1, §2, §3, §4, §5, §6, §7, §8, §9, §10
# (§12) A stock of NMDA (10 mM) was made up in double-distilled water and the necessary concentrations made up in HBS. NMDA (with 100 μM glycine) was applied in every experiment to categorically distinguish between neuronal and glial cells in the image obtained.
# The acute modulatory effect of calcium homeostasis was assessed by comparing an initial two-minute application of NMDA (10 μM) with a subsequent two-minute application of NMDA (10 μM). The subsequent application of the NMDA followed a five minute application of 1 μM sample.
# as §11
# (§13) All experiments were performed a minimum of three times, each on neurones from a different culture. Only changes in fluorescence >0.1 ratio units were considered as a response. Data were exported to Excel and statistical analysis performed using Prism. Normality tests confirmed absence of normal distribution of data. […]
# [4] = tested on: hippocampal neurones; assay: Intracellular calcium ion concentration after overnight incubation with 1 μM test article; format: cell-based, Lister-Hooded rat; conditions: for Concentration of intracellular Ca2+ Response (Post-Pre): overnight incubation with 1 μM test article at 37° C., 5% CO2; for Change from control (%): overnight incubation with 1 μM test article, control = naïve culture dishes, minus = reduction
# Procedure: as §1, §2, §3, §4, §5, §6, §7, §8, §9, §10
# (§14) To assess the effects of the test articles under more realistic chronic treatment regimes, cells were incubated overnight with 1 μM sample and responses to increasing doses of NMDA assessed (1, 10 & 100 μM).
# as §11
# All experiments were performed a minimum of three times, each on neurones from a different culture. Only changes in fluorescence >0.1 ratio units were considered as a response. […]
# [5] = tested on: hippocampal neurones; assay: Response to increasing doses of NMDA after overnight incubation with 1 μM test article; format: cell-based, Lister-Hooded rat
# Procedure: as §1, §2, §3, §4, §5, §6, §7, §8, §9, §10, §12, §14, §11, §13
# [6] = tested on: hippocampal neurones; assay: Acute effect on NMDA calcium ion response following overnight incubation with test article; format: cell-based, Lister-Hooded rat; conditions: for Response (% change): overnight incubation plus acute 1 μM test article, NMDA 10 μM, positive = reduction, minus = increase; for Post-treatment %ΔF/F / Post-treatment [Ca2+] / Pre-treatment %ΔF/F / Pre-treatment [Ca2+]: overnight incubation with 1 μM test article; for Post-treatment %ΔF/F / Post-treatment [Ca2+]: NMDA 10 μM after 5 minute application of 1 μM same test article; for Pre-treatment %ΔF/F / Pre-treatment [Ca2+]: NMDA 10 μM for 2 minutes, before acute application
# Procedure: as §1, §2, §3, §4, §5, §6, §7, §8, §9, §10, §12
# In order to assess whether the acute modulatory effects are altered by overnight incubation, the cells were incubated overnight with the 1 μM sample and assessed by comparing an initial two-minute application of NMDA (10 μM) with a subsequent two-minute application of NMDA (10 μM). The subsequent application of the NMDA followed a five minute application of 1 μM test article.
# as §11
# All experiments were performed a minimum of three times, each on neurones from a different culture. Only changes in fluorescence >0.1 ratio units were considered as a response. Data were exported to Excel and statistical analysis performed using Prism. […]
# [7] = tested on: neuronal cultures exposed to glutamate; conditions: in vitro, isolated or synthetic cannabinoid; cited from earlier work
# [8] = isolated or synthetic CBD; cited from earlier work
Structure (SMILES),Concentration of intracellular Ca2+ Post-treatment [2],"Fura-2 350/380 nm ratio, pre-treatment [2]",%ΔF/F [2],Concentration of intracellular Ca2+ Response (Post-Pre) [2],Pre-treatment %ΔF/F [3],Pre-treatment [Ca2+] [3],Response (% change) [3],Post-treatment %ΔF/F [3],Post-treatment [Ca2+] [3],Concentration of intracellular Ca2+ Response (Post-Pre) [4],Change from control (%) [4],%ΔF/F ([5]; 1 μM NMDA),Concentration of intracellular Ca2+ Post-treatment ([5]; 1 μM NMDA),Concentration of intracellular Ca2+ Pre-treatment ([5]; 1 μM NMDA),Concentration of intracellular Ca2+ Response (Post-Pre) ([5]; 1 μM NMDA),%ΔF/F ([5]; 10 μM NMDA),Concentration of intracellular Ca2+ Post-treatment ([5]; 10 μM NMDA),Concentration of intracellular Ca2+ Pre-treatment ([5]; 10 μM NMDA),Concentration of intracellular Ca2+ Response (Post-Pre) ([5]; 10 μM NMDA),%ΔF/F ([5]; 100 μM NMDA),other results
O=C(O)[C@@H]1C[C@H](CP(=O)(O)O)CCN1 (racemic) [Selfotel],,,,,,,,,,,,,,,,,,,,,Mortality rate versus placebo ([1]; stroke patients): trends towards a higher mortality rate
"CCCCCc1cc(O)c2c(c1)OC(C)(C)[C@@H]1CCC(C)=C[C@@H]21 [P-THC, tetrahydrocannabinol]",0.588,0.363,56.38%,0.225,93.69%,0.741,19.6%,63.81%,0.596,0.826,6.2%,62.24%,0.522,0.839,−0.317,57.50%,0.498,0.866,−0.368,200.35%,"Response (% change) ([3]; listed as essentially pure THC): lowest amount of reduction; Change from control (%) ([4]; listed as essentially pure THC): increase; Concentration of intracellular Ca2+ Response (Post-Pre) ([5]; 1 μM NMDA, listed as essentially pure THC): did not reduce the concentration of calcium ions as much as the others; Concentration of intracellular Ca2+ Post-treatment ([5]; 100 μM NMDA): 1.897; Concentration of intracellular Ca2+ Pre-treatment ([5]; 100 μM NMDA): 0.947; Concentration of intracellular Ca2+ Response (Post-Pre) ([5]; 100 μM NMDA): 0.950; Response (% change) [6]: −28.5%; Post-treatment %ΔF/F [6]: 38.93%; Post-treatment [Ca2+] [6]: 0.487; Pre-treatment %ΔF/F [6]: 46.53%; Pre-treatment [Ca2+] [6]: 0.379; Prevention of glutamate toxicity [7]: prevented to some extent"
"C=C(C)[C@@H]1CCC(C)=C[C@H]1c1c(O)cc(CCCCC)cc1O [P-CBD, cannabidiol]",1.172,0.805,45.45%,0.367,91.70%,0.722,58.2%,32.91%,0.302,0.893,13.2%,43.80%,0.410,0.933,−0.523,53.54%,0.489,0.913,−0.424,141.57%,Response (% change) ([3]; listed as essentially pure CBD): far greater reduction; Concentration of intracellular Ca2+ Post-treatment ([5]; 100 μM NMDA): 1.289; Concentration of intracellular Ca2+ Pre-treatment ([5]; 100 μM NMDA): 0.910; Concentration of intracellular Ca2+ Response (Post-Pre) ([5]; 100 μM NMDA): 0.379; Response (% change) [6]: −68.6%; Response (% change) ([6]; listed as essentially pure CBD): increased the concentration to a large extent; Post-treatment %ΔF/F [6]: 71.97%; Post-treatment [Ca2+] [6]: 0.715; Pre-treatment %ΔF/F [6]: 52.42%; Pre-treatment [Ca2+] [6]: 0.424; Prevention of glutamate toxicity [7]: prevented to some extent; Difference between treated and placebo treated animals [8]: failed to find a difference
CN1CC[C@@]23CCCC[C@@H]2[C@@H]1Cc1ccc(O)cc13 [Dextrorphan],,,,,,,,,,,,,,,,,,,,,"Side effects ([1]; human subjects): hallucinations, agitation and hypotension"
